Counter-ions that a name gives are not always drawn.
Target: Glycogen synthase kinase-3 beta (Homo sapiens, UniProt P49841)
Assay: GSK3beta kinase inhibitor potency, dose response, biochemical, luminescence, cell-free homogeneous, retest (AID 434954)

Chain of Glycogen synthase kinase-3 beta (P49841 whole entry): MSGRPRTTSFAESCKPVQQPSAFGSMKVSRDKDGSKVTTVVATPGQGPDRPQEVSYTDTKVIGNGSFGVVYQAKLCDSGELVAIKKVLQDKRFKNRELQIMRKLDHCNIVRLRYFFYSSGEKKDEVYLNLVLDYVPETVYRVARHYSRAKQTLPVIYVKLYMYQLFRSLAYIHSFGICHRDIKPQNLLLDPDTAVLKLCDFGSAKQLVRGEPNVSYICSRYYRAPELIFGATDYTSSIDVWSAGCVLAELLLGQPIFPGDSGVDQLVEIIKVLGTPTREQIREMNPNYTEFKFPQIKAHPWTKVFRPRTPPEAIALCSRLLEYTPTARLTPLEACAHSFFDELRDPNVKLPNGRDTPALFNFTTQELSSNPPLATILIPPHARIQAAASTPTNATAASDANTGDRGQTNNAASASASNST

| Structure (SMILES) | EC50 |
| --- | --- |
| O=C(CN(Cc1ccc(F)cc1)C(=O)CCC(=O)Nc1ccccn1)NCc1ccc(F)cc1 [N-(4-Fluoro-benzyl)-N-[(4-fluoro-benzylcarbamoyl)-methyl]-N'-pyridin-2-yl-succinamide] | 37.7 µM |
| CCn1c(SCC(=O)Nc2ccc(NC(C)=O)cc2)nnc1C1CC1 [N-(4-acetamidophenyl)-2-[(5-cyclopropyl-4-ethyl-1,2,4-triazol-3-yl)sulfanyl]ethanamide] | > 300 µM |
| COc1cccc(-c2ccc3nnc(SCC(=O)Nc4ccc(NC(C)=O)cc4)n3n2)c1 [N-(4-acetamidophenyl)-2-[[6-(3-methoxyphenyl)-[1,2,4]triazolo[4,3-b]pyridazin-3-yl]sulfanyl]ethanamide] | > 300 µM |
| CC(=O)c1ccc(NC(=O)CN2C(=O)CCC2=O)cc1 [N-(4-acetylphenyl)-2-(2,5-dioxo-1-pyrrolidinyl)acetamide] | > 300 µM |
| CCn1c(SCC(=O)Nc2ccc(C(C)=O)cc2)nnc1C1CC1 [N-(4-acetylphenyl)-2-[(5-cyclopropyl-4-ethyl-1,2,4-triazol-3-yl)sulfanyl]acetamide] | > 300 µM |
| CC(=O)Nc1c(N)c2ccccc2oc1=O [N-(4-amino-2-oxo-1-benzopyran-3-yl)acetamide] | > 300 µM |
| CCNc1ccc(S(=O)(=O)N(C)C)cc1NCC(=O)Nc1ccc(Br)cc1F [N-(4-bromanyl-2-fluoranyl-phenyl)-2-[[5-(dimethylsulfamoyl)-2-(ethylamino)phenyl]amino]ethanamide] | > 300 µM |
| CC(C)N1CC(C(=O)Nc2ccc(Br)c(Cl)c2)CC1=O (centres undefined) [N-(4-bromo-3-chlorophenyl)-5-oxo-1-propan-2-yl-3-pyrrolidinecarboxamide] | > 300 µM |
| Cc1cc(NC(=O)CCN2CCC(C)CC2)ccc1Br [N-(4-bromo-3-methylphenyl)-3-(4-methyl-1-piperidinyl)propanamide;hydrochloride] | > 300 µM |
| O=C(CN1C(=O)CCC1=O)Nc1ccc(Br)cc1 [N-(4-bromophenyl)-2-(2,5-dioxo-1-pyrrolidinyl)acetamide] | > 300 µM |
| COCc1c(C(=O)Nc2ccc(Cl)cc2F)oc2ccccc12 [N-(4-chloro-2-fluorophenyl)-3-(methoxymethyl)-2-benzofurancarboxamide] | > 300 µM |
| O=C(CCSc1nnc(-c2ccncc2)o1)Nc1ccc(F)cc1 [N-(4-fluorophenyl)-3-[(5-pyridin-4-yl-1,3,4-oxadiazol-2-yl)thio]propanamide] | > 300 µM |
| COc1ccc(Nc2nc(-c3ccncc3)nc3ccccc23)cc1 [N-(4-methoxyphenyl)-2-pyridin-4-ylquinazolin-4-amine] | > 300 µM |
| COc1ccc(Nc2nc(N)nc(CSc3nncn3C)n2)cc1 [N-(4-methoxyphenyl)-6-{[(4-methyl-4H-1,2,4-triazol-3-yl)thio]methyl}-1,3,5-triazine-2,4-diamine] | 41.3 µM |
| Cc1ccnc(NC(=O)Cn2ccc([N+](=O)[O-])n2)c1 [N-(4-methylpyridin-2-yl)-2-(3-nitropyrazol-1-yl)ethanamide] | > 300 µM |
| Cc1ccnc(NC(=O)Cc2ccc([N+](=O)[O-])cc2)c1 [N-(4-methylpyridin-2-yl)-2-(4-nitrophenyl)ethanamide] | 21.4 µM |
| Cc1ccnc(NC(=O)c2ccccc2[N+](=O)[O-])c1 [N-(4-methylpyridin-2-yl)-2-nitro-benzamide] | > 300 µM |
| Cc1ccnc(NC(=O)c2ccc([N+](=O)[O-])s2)c1 [N-(4-methylpyridin-2-yl)-5-nitro-thiophene-2-carboxamide] | > 300 µM |
| Cc1ccnc(NC(=O)CCC(=O)N(CC(=O)NCCc2ccccc2)Cc2cccs2)c1 [N-(4-methylpyridin-2-yl)-N'-[2-oxidanylidene-2-(2-phenylethylamino)ethyl]-N'-(thiophen-2-ylmethyl)butanediamide] | 21.3 µM |
| O=C(Nc1ncnc2sc3c(c12)CCCC3)c1ccncc1 [N-(5,6,7,8-tetrahydro-[1]benzothiolo[2,3-d]pyrimidin-4-yl)-4-pyridinecarboxamide] | 42.4 µM |
| CCc1n[nH]c(SCC(=O)Nc2ccc(Br)cn2)n1 [N-(5-bromanylpyridin-2-yl)-2-[(5-ethyl-1H-1,2,4-triazol-3-yl)sulfanyl]ethanamide] | 17.5 µM |
| Cn1c(SCC(=O)Nc2ccc(Br)cn2)nnc1C1CC1 [N-(5-bromopyridin-2-yl)-2-[(5-cyclopropyl-4-methyl-1,2,4-triazol-3-yl)sulfanyl]acetamide] | 20.7 µM |
| O=C(CCSCCc1ccccn1)Nc1ccc(Br)cn1 [N-(5-bromopyridin-2-yl)-3-(2-pyridin-2-ylethylsulfanyl)propanamide] | 39.3 µM |
| COCCn1c(SCC(=O)Nc2ccc(Cl)cn2)nnc1-c1ccncc1 [N-(5-chloranylpyridin-2-yl)-2-[[4-(2-methoxyethyl)-5-pyridin-4-yl-1,2,4-triazol-3-yl]sulfanyl]ethanamide] | 49.2 µM |
| Cn1c(SCC(=O)Nc2ccc(Cl)cn2)nnc1C1CC1 [N-(5-chloro-2-pyridinyl)-2-[(5-cyclopropyl-4-methyl-1,2,4-triazol-3-yl)thio]acetamide] | 23.7 µM |
| Cc1nnc(SCC(=O)Nc2ccc(Cl)cn2)[nH]c1=O [N-(5-chloro-2-pyridinyl)-2-[(6-methyl-5-oxo-2H-1,2,4-triazin-3-yl)thio]acetamide] | 36.7 µM |

Results, then the compound that gave them:

| EC50 | Structure (SMILES) |
| --- | --- |
| 3.82 µM | COCCn1c(SCC(=O)Nc2ccc(Cl)cn2)nc2ccccc21 [N-(5-chloropyridin-2-yl)-2-[1-(2-methoxyethyl)benzimidazol-2-yl]sulfanylacetamide] |
| 19.4 µM | Cc1csc(SCC(=O)Nc2ccc(Cl)cn2)n1 [N-(5-chloropyridin-2-yl)-2-[(4-methyl-1,3-thiazol-2-yl)sulfanyl]acetamide] |
| > 300 µM | Cc1cc(NC(=O)COc2cccnc2[N+](=O)[O-])no1 [N-(5-methyl-1,2-oxazol-3-yl)-2-(2-nitropyridin-3-yl)oxyacetamide] |
| > 300 µM | O=C(Nc1ncc([N+](=O)[O-])s1)c1ccco1 [N-(5-nitro-2-thiazolyl)-2-furancarboxamide] |
| 43.8 µM | O=C(Nc1nc2ccc(Cl)cc2s1)C1CC1 [N-(6-chloranyl-1,3-benzothiazol-2-yl)cyclopropanecarboxamide] |
| > 300 µM | COc1ccc2nc(NC(=O)C3CCCO3)sc2c1 (centres undefined) [N-(6-methoxy-1,3-benzothiazol-2-yl)-2-oxolanecarboxamide] |
| 44.5 µM | CCCn1nc(NC(=O)c2cccs2)c2cc3cc(OC)ccc3nc21 [N-(6-methoxy-1-propyl-3-pyrazolo[3,4-b]quinolinyl)-2-thiophenecarboxamide] |
| 63.8 µM | CCCn1nc(NC(=O)C(C)(C)C)c2cc3cc(OC)ccc3nc21 [N-(6-methoxy-1-propylpyrazolo[3,4-b]quinolin-3-yl)-2,2-dimethylpropanamide] |
| > 300 µM | CCCn1nc(NC(=O)C(C)C)c2cc3cc(OC)ccc3nc21 [N-(6-methoxy-1-propylpyrazolo[3,4-b]quinolin-3-yl)-2-methylpropanamide] |
| > 300 µM | Cc1cccc(NC(=O)C(C)n2cc([N+](=O)[O-])cn2)n1 (centres undefined) [N-(6-methylpyridin-2-yl)-2-(4-nitro-1H-pyrazol-1-yl)propanamide] |
| > 300 µM | CC(=O)Nc1ncc2c(n1)CC(c1ccco1)CC2=O (centres undefined) [N-(7-Furan-2-yl-5-oxo-5,6,7,8-tetrahydro-quinazolin-2-yl)-acetamide] |
| > 300 µM | CCCn1nc(NC(=O)C2CCCO2)c2cc3ccc(C)cc3nc21 (centres undefined) [N-(7-methyl-1-propyl-pyrazolo[3,4-b]quinolin-3-yl)oxolane-2-carboxamide] |
| > 300 µM | CCCn1nc(NC(=O)c2cccs2)c2cc3ccc(C)cc3nc21 [N-(7-methyl-1-propylpyrazolo[3,4-b]quinolin-3-yl)thiophene-2-carboxamide] |
| > 300 µM | CCCn1nc(NC(=O)C2CCCO2)c2cc3cccc(C)c3nc21 (centres undefined) [N-(8-methyl-1-propylpyrazolo[3,4-b]quinolin-3-yl)oxolane-2-carboxamide] |
| 21.3 µM | COc1ccc(CN(CC(=O)NCc2ccccc2)C(=O)CCC(=O)Nc2cc(C)ccn2)cc1 [N-(Benzylcarbamoyl-methyl)-N-(4-methoxy-benzyl)-N'-(4-methyl-pyridin-2-yl)-succinamide] |
| > 300 µM | COc1ccccc1-c1ccc(=O)n(CC(=O)NCc2ccco2)n1 [N-(furan-2-ylmethyl)-2-[3-(2-methoxyphenyl)-6-oxidanylidene-pyridazin-1-yl]ethanamide] |
| > 300 µM | O=C(NCc1ccco1)C(=O)c1cn(CC(=O)N2CCCC2)c2ccccc12 [N-(furan-2-ylmethyl)-2-oxidanylidene-2-[1-(2-oxidanylidene-2-pyrrolidin-1-yl-ethyl)indol-3-yl]ethanamide] |
| > 300 µM | O=C(NCc1ccccc1)c1ccc2nccnc2c1 [N-(phenylmethyl)-6-quinoxalinecarboxamide] |
| 51.2 µM | O=C(NC(=O)c1ccccc1)Nc1ccccn1 [N-(pyridin-2-ylcarbamoyl)benzamide] |
| > 300 µM | c1ccc(CNc2ncnc3scc(-c4cccs4)c23)nc1 [N-(pyridin-2-ylmethyl)-5-thiophen-2-yl-thieno[2,3-d]pyrimidin-4-amine] |
| > 300 µM | O=C(NN=Cc1ccc2nccnc2c1)c1ccncc1 [N-(quinoxalin-6-ylmethylideneamino)pyridine-4-carboxamide] |
| > 300 µM | COc1cccc(C(=O)Nc2nc3ccccc3s2)c1 [N-Benzothiazol-2-yl-3-methoxy-benzamide] |
| 108 µM | Nc1nc(NCc2ccccc2)nc(Nc2cccc(F)c2)c1[N+](=O)[O-] [N-Benzyl-N'-(3-fluoro-phenyl)-5-nitro-pyrimidine-2,4,6-triamine] |
| > 300 µM | COc1ccc(OCCCC(=O)NCc2ccco2)cc1 [N-Furan-2-ylmethyl-4-(4-methoxy-phenoxy)-butyramide] |
| > 300 µM | Nc1nc(NCc2ccco2)nc(Nc2ccccc2)c1[N+](=O)[O-] [N-Furan-2-ylmethyl-5-nitro-N'-phenyl-pyrimidine-2,4,6-triamine] |
| > 300 µM | O=C(Nc1ccccc1)C(=O)Nc1ccccn1 [N-Phenyl-N'-pyridin-2-yl-oxalamide] |
| > 300 µM | O=C(Nc1cccc2c1C(=O)NC2=O)c1cccnc1Cl [N-[1,3-bis(oxidanylidene)isoindol-4-yl]-2-chloranyl-pyridine-3-carboxamide] |
| 77.1 µM | O=C(Nc1cccc2c1C(=O)NC2=O)c1ccc(-n2c(O)ccc2O)cc1 [N-[1,3-bis(oxidanylidene)isoindol-4-yl]-4-[2,5-bis(oxidanylidene)pyrrolidin-1-yl]benzamide] |

Source: BindingDB's records for doi:10.7270/Q2TX3CTT (Broad Institute, 2010)
